Measured values from US20130023469A1, “LEPTIN FOR USE IN INCREASING LIVER REGENERATION” (Hadasit Medical Research Services & Development Ltd., priority 2009, published 2013).
“And” between values parts separate entries of the source, which are not always exact repeats. Equal values may be shown once. “Also recorded” adds a separate entry of the source.

Tests used:
hepatocytes [1] = assay: BrdU incorporation into hepatocytes (proliferation index) after two-thirds partial hepatectomy; type: in vivo, mice
Method: Animal studies and tissue preparation. All animal experiments were performed in accordance with the guidelines of the Institutional Committee for the Use of Animals for Research (IACUC). Mice aged 18 months or older (‘old’ mice) were either purchased from the National Institute of Aging and from Charles River Laboratories or maintained up to the required age in the Specific Pathogen Free (SPF) animal facility at our institution. Mice aged 10-12 months (‘aged’ mice) and 8-week-old ob/ob mice were purchased from Harlan Laboratories. The genetic background of all mice was c57 Black. Pregnancy in ob/ob mice was induced as described previously (Malik et al., 2001). Pseudopregnancy was induced by mating females with vasectomized males and observing for the presence of vaginal plugs. Progesterone levels were measured to verify pseudopregnancy induction (Shiotani et al., 1993). For rapamycin treatment, mice were injected intraperitoneally (i.p.) for 3 consecutive days with rapamycin (0.2 mg/kg body weight diluted in DMSO; LC Laboratories), starting 3 h before the hepatectomy. For PTEN inhibition, bpV(phen) (3.3 μg/g body weight diluted in normal saline; Alexis Biochemicals) was administered i.p. on the day before hepatectomy and once a day for 3 days thereafter. BrdU (100 μl/10 g body weight; Amersham) was injected i.p. at the indicated times before the mice were killed. When indicated, BrdU (#B5002; Sigma) was added to the drinking water (0.8 mg/ml). The mice were allowed to drink ad libitum. For all experiments mice were killed by cervical dislocation. In some cases, a liver sample was removed and ‘snap-frozen’ for protein and RNA analyses. Livers were removed, weighed, photographed, and fixed in formalin overnight, and the next day the entire liver was embedded in paraffin. For measurement of serum prothrombin time, sodium citrate (0.105 M) was added immediately to the blood sample at a ratio of 1:10 (v/v), and values were recorded with a Beckman Coulter ACL 9000 Coagulation Analyzer according to the manufacturer's instructions. For ⅔ partial hepatectomy, virgin or pregnant mice (16-18 days post-coitum unless otherwise specified) were anesthetized, and the median and left lateral lobes of the liver were removed, as described (Ben Moshe et al., 2007).
Proliferation index. The percentage of BrdU-positive hepatocyte nuclei was assessed using the Kisight module of the Ariol SL 50® automated scanning microscope and image analysis system, according to the manufacturer's instructions. The same gating parameters were used for all sections. Ten fields in each liver were scored and the average percentage was calculated.
Immunohistochemistry and immunofluorescence. […]

hepatocytes [2] = assay: Hepatocyte cell size (E-cadherin staining) after partial hepatectomy; type: in vivo, mice
Method: (§1) Animal studies and tissue preparation. All animal experiments were performed in accordance with the guidelines of the Institutional Committee for the Use of Animals for Research (IACUC). Mice aged 18 months or older (‘old’ mice) were either purchased from the National Institute of Aging and from Charles River Laboratories or maintained up to the required age in the Specific Pathogen Free (SPF) animal facility at our institution. Mice aged 10-12 months (‘aged’ mice) and 8-week-old ob/ob mice were purchased from Harlan Laboratories. The genetic background of all mice was c57 Black. Pregnancy in ob/ob mice was induced as described previously (Malik et al., 2001). […] Progesterone levels were measured to verify pseudopregnancy induction (Shiotani et al., 1993). […] For measurement of serum prothrombin time, sodium citrate (0.105 M) was added immediately to the blood sample at a ratio of 1:10 (v/v), and values were recorded with a Beckman Coulter ACL 9000 Coagulation Analyzer according to the manufacturer's instructions. […]
Measurement of cell size. […] The numbers of pixels in 100-300 individual hepatocytes for each mouse were scored with ImageJ (NIH) by an observer who was blinded to the treatment group. […] Mean hepatocyte volume was calculated by dividing the hepatocyte volume by the number of hepatocytes. […]

Akt/mTORC1 pathway = assay: Western blot / phospho-4E-BP analysis of liver for Akt/mTORC1 pathway activation; type: in vivo, mice
Method: as §1
Western blot analysis. […] Tissue lysates containing 100 μg protein were separated by 12% SDS-PAGE, and assessed by Western blot analysis by means of sequential probing with the relevant primary antibody and a relevant anti-IgG conjugated to horseradish peroxidase (Jackson ImmunoResearch).

[3] = tested on: old mice after partial hepatectomy; assay: Post-hepatectomy mortality in old mice; type: in vivo; conditions: female mice aged 18-24 mo, control four out of nine, P=0.014
Method: Animal studies and tissue preparation. All animal experiments were performed in accordance with the guidelines of the Institutional Committee for the Use of Animals for Research (IACUC). Mice aged 18 months or older (‘old’ mice) were either purchased from the National Institute of Aging and from Charles River Laboratories or maintained up to the required age in the Specific Pathogen Free (SPF) animal facility at our institution. Mice aged 10-12 months (‘aged’ mice) and 8-week-old ob/ob mice were purchased from Harlan Laboratories. The genetic background of all mice was c57 Black. Pregnancy in ob/ob mice was induced as described previously (Malik et al., 2001). Pseudopregnancy was induced by mating females with vasectomized males and observing for the presence of vaginal plugs. Progesterone levels were measured to verify pseudopregnancy induction (Shiotani et al., 1993). For rapamycin treatment, mice were injected intraperitoneally (i.p.) for 3 consecutive days with rapamycin (0.2 mg/kg body weight diluted in DMSO; LC Laboratories), starting 3 h before the hepatectomy. […] For measurement of serum prothrombin time, sodium citrate (0.105 M) was added immediately to the blood sample at a ratio of 1:10 (v/v), and values were recorded with a Beckman Coulter ACL 9000 Coagulation Analyzer according to the manufacturer's instructions. […]

[4] = tested on: old mice after partial hepatectomy; assay: Post-hepatectomy blood coagulation (prothrombin time) and locomotor activity tests; type: in vivo; conditions: female mice aged 18-24 mo, compared with nontreated old mice
Method: Animal studies and tissue preparation. All animal experiments were performed in accordance with the guidelines of the Institutional Committee for the Use of Animals for Research (IACUC). Mice aged 18 months or older (‘old’ mice) were either purchased from the National Institute of Aging and from Charles River Laboratories or maintained up to the required age in the Specific Pathogen Free (SPF) animal facility at our institution. Mice aged 10-12 months (‘aged’ mice) and 8-week-old ob/ob mice were purchased from Harlan Laboratories. The genetic background of all mice was c57 Black. Pregnancy in ob/ob mice was induced as described previously (Malik et al., 2001). Pseudopregnancy was induced by mating females with vasectomized males and observing for the presence of vaginal plugs. Progesterone levels were measured to verify pseudopregnancy induction (Shiotani et al., 1993). […] For measurement of serum prothrombin time, sodium citrate (0.105 M) was added immediately to the blood sample at a ratio of 1:10 (v/v), and values were recorded with a Beckman Coulter ACL 9000 Coagulation Analyzer according to the manufacturer's instructions. […]
Locomotor activity. This was monitored using a photocell cage, 43.2 cm×43.2 cm (Med Associates), with 16 beam I/R arrays located along each wall of the box. […]

hepatocytes [5] = conditions: previous studies; cited from earlier work
[6] = tested on: H35 cells (rat hepatoma cell line); assay: Western blot of H35 cells treated with leptin, IL6 or both; type: cell-based; conditions: starvation for 16 h then treated
Method: Western blot analyses of hepatoma rat cells, that were under starvation for 16 h and then treated with: bpV(phen), leptin, IL-6 and combination of IL-6 and Leptin.
Leptin is an adipokine of the IL6 family and its receptor signals through both the JAK/STAT and the Akt/mTORC1 pathways. Its origin is placental in humans, maternal in mice, and in late pregnancy it is increased by up to 25-fold. To test whether pregnancy-induced leptin accumulation contributes to the proliferation-to-hypertrophy switch in pregnancy we used ob/ob mice, which carry a loss-of-function mutation in leptin. Indeed, hepatocyte proliferation was not decreased in pregnant versus non-pregnant ob/ob mice (FIG. 13A). Moreover, liver regeneration in pregnant ob/ob mice was not accompanied by hepatocyte hypertrophy (FIGS. 13B-D). These findings confirmed that maternal leptin is necessary for the pregnancy-induced module switch. Furthermore, the phosphorylation state of components of the Akt/mTORC1 pathway was not increased in pregnant relative to nonpregnant mice (FIG. 13E FIG. 4e). […] Cells were harvested and protein extracts were analyzed by Western blot analysis. […] To test whether leptin is sufficient to activate the hypertrophy module, we administered leptin or vehicle to nonpregnant female mice prior to and after hepatectomy (FIG. 15A) and assessed liver growth and proliferation.

liver regeneration = assay: Prolactin administration to nonpregnant mice, liver regeneration; type: in vivo; conditions: data not shown
Source text: In searching for the upstream signals mediating the pregnancy-induced switch, we identified four candidate hormones that are elevated in pregnancy and can activate the Akt/mTORC1 pathway: growth hormone (and its variants), prolactin, leptin and estrogen.

[7] = young nonpregnant mice treated with bpV(phen), after partial hepatectomy

With `O.O.O.OO.OO.[K+].[OH-].[V].c1cnc2c(c1)ccc1cccnc12` [bpV(phen), bisperoxovanadium 1,10-phenanthroline] the “proliferation index” value (hepatocytes [1]; [7]) was “low proliferation index”, the BrdU-labeled hepatocytes (hepatocytes [1]; young nonpregnant mice, 4 d after partial hepatectomy, continuous BrdU, bpV(phen) 3.3 μg/g i.p., untreated 92±1%) was 8±2% and the “growth in the mean cross-sectional area” value (hepatocytes [2]; [7]) was 115%. For the same molecule, the “activation of Akt/mTORC1 pathway (phosphorylated Akt and 4E-BP1, Western blot)” value (Akt/mTORC1 pathway; liver extracts of young mice treated with bpV(phen)) was “activates the Akt/mTORC1 pathway”, the mortality rate [3] was “zero out of nine” and the “recovery from partial hepatectomy (blood coagulation and locomotor activity)” value [4] was “significant improvement in recovery from partial hepatectomy”.

For `CO[C@H]1C[C@@H]2CC[C@@H](C)[C@@](O)(O2)C(=O)C(=O)N2CCCC[C@H]2C(=O)O[C@H]([C@H](C)C[C@@H]2CC[C@@H](O)[C@H](OC)C2)CC(=O)[C@H](C)/C=C(\C)[C@@H](O)[C@@H](OC)C(=O)[C@H](C)C[C@H](C)/C=C/C=C/C=C/1C` [rapamycin], the “hepatocyte proliferation rate (BrdU-labeled)” value (hepatocytes [1]; aged pregnant mice, 2 d after partial hepatectomy, rapamycin 0.2 mg/kg i.p. for 3 days, vehicle 2%±1%) was 25±8% and 25%±8% and the cell size (hepatocytes [2]; aged pregnant mice, 2 d after partial hepatectomy, rapamycin-treated, vehicle 527±2) was 422±1 μ^2.

For Estrogen, the “hepatocyte proliferation after partial hepatectomy” value (hepatocytes [5]) is listed as “increase hepatocyte proliferation after partial hepatectomy”.

For “growth hormone: hormone elevated in pregnancy; not tested by the applicant, literature result only”, the “hepatocyte proliferation after partial hepatectomy” value (hepatocytes [5]) is listed as “increase hepatocyte proliferation after partial hepatectomy”.

B1: leptin: adipokine of the IL6 family; mouse leptin was injected in mice (protein, UniProt P41160 22-167, looked up)
Leptin: VPIQKVQDDTKTLIKTIVTRINDISHTQSVSAKQRVTGLDFIPGLHPILSLSKMDQTLAVYQQVLTSLPSQNVLQIANDLENLRDLLHLLAFSKSCSLPQTSGLQKPESLDGVLEASLYSTEVVALSRLQGSLQDILQQLDVSPEC
In the case of B1, the “hepatocyte proliferation (BrdU-positive cells)” value (hepatocytes [1]; nonpregnant female mice, leptin S.C. 1 mg/kg from two days before to two days after partial hepatectomy) is reported as “marked reduction in hepatocyte proliferation”, the “Akt pathway activation (phosphorylation of 4E-BP)” value (Akt/mTORC1 pathway; nonpregnant female mice, leptin S.C. 1 mg/kg, two days after partial hepatectomy) is reported as “activating the Akt pathway” and the “Akt pathway activation (phosphorylation of S6 kinase and 4E-BP)” value [6] is reported as “activates the Akt pathway; also recorded: phosphorylation of both S6 kinase and 4E-BP”. For the same molecule, the “hepatocyte proliferation after partial hepatectomy” value (hepatocytes [5]) was “attenuates hepatocyte proliferation after partial hepatectomy”.

B2: prolactin: hormone elevated in pregnancy that can activate the Akt/mTORC1 pathway (protein, UniProt P01236 29-227, looked up)
Prolactin: LPICPGGAARCQVTLRDLFDRAVVLSHYIHNLSSEMFSEFDKRYTHGRGFITKAINSCHTSSLATPEDKEQAQQMNQKDFLSLIVSILRSWNEPLYHLVTEVRGMQEAPEAILSKAVEIEEQTKRLLEGMELIVSQVHPETKENEIYPVWSGLPSLQMADEESRLSAYYNLLHCLRRDSHKIDNYLKLLKCRIIHNNNC
In the case of B2, the “effect on liver regeneration” value (liver regeneration) is reported as “no effect on liver regeneration”.
